Test results from US20160106102A1, “KNOWN AND NEW HETEROCYCLIC COMPOUNDS AS PEST CONTROL AGENTS” (BAYER CROPSCIENCE AKTIENGESELLSCHAFT, priority 2013, published 2016).
Like-named read-outs stand apart in the source and are kept apart here.

Experiment: log P determination by LC-MS in the acidic range
Assay type: physicochemical
Source text: The LC-MS determination in the acidic range is effected at pH 2.7 using 0.1% aqueous formic acid and acetonitrile (contains 0.1% formic acid) as eluents, linear gradient from 10% acetonitrile to 95% acetonitrile. Alternatively, the determination is effected in the acidic range at pH 2.3 using 0.1% aqueous phosphoric acid and acetonitrile as eluents; linear gradient from 10% acetonitrile to 95% acetonitrile.

[1] = Table 2, compounds of the formula (I-2), acidic range pH 2.7 or pH 2.3
[2] = amines of the formula (II-1), acidic range pH 2.7 (0.1% formic acid/acetonitrile) or pH 2.3 (0.1% phosphoric acid/acetonitrile)
[3] = pH 2.7, values given in the synthesis examples and NMR lists, read-out: HPLC-MS: log P

SMILES | log P (acid) (LC-MS in the acidic range) | log P (acid) [2] | other results
Cc1nc(NC(=O)c2cccnc2)nn1Cc1ncccn1 [Compound I-2-2] |  |  | log P (acid) [1]: −0.05
CCOc1nc(OCC)nc(-n2cnc(NC(=O)c3cccnc3)n2)n1 [Compound I-2-10] |  |  | log P (acid) [1]: 1.41
Cc1cc(NC(=O)c2cnc(Cl)c(Cl)c2)nn1Cc1cccc(F)c1 [Compound I-1-96] | 3.26 |  | 
Cc1nn(-c2ccccc2)nc1NC(=O)c1cccnc1 [Compound I-3-11] |  |  | log P (acid) (Table 3, HPLC on reversed-phase column (C 18), 55° C., acidic range (pH 2.7 or pH 2.3)): 1.82
COc1ccc(C(=O)Nc2cc(C)n(Cc3cccc(F)c3)n2)cn1 [Compound I-1-94] | 2.51 |  | 
Cn1nc(NC(=O)c2cncc(F)c2)c(Br)c1OC(F)F [Compound I-1-113] | 1.67 |  | 
Cc1cc(N)nn1C(F)F [II-1-27] |  | 0.47 | 
Cc1cc(N)nn1C(=O)OC(C)(C)C [tert-Butyl 3-amino-5-methyl-1H-pyrazole-1-carboxylate] |  |  | chromatographic logP [3]: 1.23
O=C(Nc1ncn(-c2ccccc2)n1)c1cccnc1 [Compound I-2-5] |  |  | log P (acid) [1]: 0.98
COc1ccnc(-n2cnc(NC(=O)c3cccnc3)n2)n1 [Compound I-2-11] |  |  | log P (acid) [1]: 0.70
O=C(Nc1ncn(-c2c(Cl)cc(S(=O)(=O)C(F)(F)F)cc2Cl)n1)c1cccnc1 [Compound I-2-3] |  |  | log P (acid) [1]: 2.02
Nc1ccn(Cc2ncc(C(F)(F)F)cc2Cl)n1 [II-1-8, 1-{[3-Chloro-5-(trifluoromethyl)pyridin-2-yl]methyl}-1H-pyrazole-3-amine] |  |  | chromatographic logP (pH 2.7, amines of the formula (II-1), acidic range pH 2.7 (0.1% formic acid/acetonitrile) or pH 2.3 (0.1% phosphoric acid/acetonitrile), read-out: log P (acid)): 1.36; chromatographic logP [3]: 1.36
Cc1cc(N)nn1Cn1c(C)nn(C)c1=O [II-1-54] |  | <−0.23 | 
Cc1cc(N)nn1Cc1cccc(OC(F)(F)F)c1 [II-1-11] |  | 1.39 | 
COc1cc(OC)nc(-n2cnc(NC(=O)c3cccnc3)n2)n1 [Compound I-2-24] |  |  | log P (acid) [1]: 1.11
COc1cc(OC)nc(Cn2nc(N)cc2C)n1 [II-1-12] |  | 0.81 | 

SMILES | log P (acid) (LC-MS in the acidic range) | log P (acid) [2] | other results
CCSCn1nc([N+](=O)[O-])cc1C [1-[(Ethylsulphanyl)methyl]-5-methyl-3-nitro-1H-pyrazole] |  |  | chromatographic logP [3]: 2.21
Cc1cc(N)nn1Cc1ncccc1C#N [II-1-25] |  | 0.21 | 
Cc1cc(NC(=O)c2cccnc2)nn1C(=O)c1cccc(Cl)c1 [Compound I-1-127] | 1.92 |  | 
Cc1cc(N)nn1-c1ncccc1Cl [II-1-31] |  | 0.79 | 
Cc1cc(N)nn1Cn1cncn1 [II-1-43] |  | −0.23 | 
O=[N+]([O-])c1ccn(Cc2ncc(C(F)(F)F)cc2Cl)n1 [3-Chloro-2-[(3-nitro-1H-pyrazol-1-yl)methyl]-5-(trifluoromethyl)pyridine] |  |  | chromatographic logP [3]: 2.67
CCOCn1nc(N)cc1C [II-1-33] |  | 0.15 | 
Cc1cc(F)c(Cn2nc(NC(=O)c3cccnc3)cc2C)cc1SCC(F)(F)F [Compound I-1-337] | 2.89 |  | 
Cc1cc(NC(=O)c2ccnnc2)nn1Cn1cccn1 [Compound I-1-240] | 0.91 |  | 
Cc1cc(C)nc(Cn2nc(NC(=O)c3ccnnc3)cc2C)n1 [Compound I-1-251] | 1.14 |  | 
CCn1nc(NC(=O)c2cccnc2)nc1SC [Compound I-2-12] |  |  | log P (acid) [1]: 0.71
Cc1cc(N)nn1Cn1nc(C2CC2)n(C2CC2)c1=O [II-1-50] |  | 0.98 | 
Cc1cnn(Cn2nc(NC(=O)c3ccnnc3)cc2C)c1 [Compound I-1-256] | 1.1 |  | 
COc1ccc(-n2ccc(NC(=O)c3cccnc3)n2)cc1 [Compound I-1-271] | 1.6 |  | 
Cc1cc(NC(=O)c2ccnnc2)nn1Cc1ncccc1Cl [Compound I-1-254] | 1.33 |  | 
C#CCn1nc(N)cc1C [II-1-20] |  | −0.15 | 
